Test results as given in patent US20120045764A1, “METHOD OF EXPANDING HUMAN HEPATOCYTES IN VIVO” (priority 2009, published 2012).
Where “and” joins values, the source holds several entries; their conditions need not be identical. Equal values may be shown once. Entries after “also recorded” stand apart in the source; their conditions may differ.

Columns and labels:
[1] = tested on: FRG mice; test: Maintenance of FRG mice on NTBC in drinking water and NTBC withdrawal; assay type: in vivo, mouse
Procedure: To generate an immunodeficient Fah^−/− mouse strain completely lacking T cells, B cells and NK cells, but without a DNA repair defect, Fah^−/−/Rag2^−/−/Il2rg^−/− (FRG) mice were generated. Male Fah^−/−129S4 mice (Grompe et al. Genes Dev. 7:2298-2307, 1993) were crossed with female Rag2^−/−/Il2rg^−/− mice (Taconic). All animals were maintained with drinking water containing 2-(2-nitro-4-trifluoro-methyl-benzoyl)-1,3 cyclohexanedione (NTBC) at a concentration of 1.6 mg/L (Grompe et al. Nat. Genet. 10:453-460, 1995). To confirm the genotypes of each animal, PCR-based genotyping was carried out on 200 ng genomic DNA isolated from toe tissue (Grompe et al. Genes Dev. 7:2298-2307, 1993; Traggiai et al. Science 304:104-107, 2004).

[2] = tested on: FRG mice; test: Liver repopulation of FRG mice treated with anakinra (blood human albumin by ELISA); assay type: in vivo, mouse; settings: for blood level of human albumin, Elisa #1: Experiment #3, serial transplantation
Procedure: Small amounts of blood were collected once a week from the left saphenous vein with a heparinized blood capillary. After 1,000 or 10,000× dilution with Tris-buffered saline, human albumin concentration was measured with the Human Albumin ELISA Quantitation Kit (Bethyl) according to the manufacturer's protocol.
One million human hepatocytes from the same batch were injected intrasplenically into six FRG mice. In three mice, anakinra (2 mg) was administered intraperitoneally during surgery and then once daily for six additional doses (total dose=14 mg over 7 days). One month after transplantation, blood human albumin was measured by ELISA. […] All three anakinra-treated mice had much higher albumin levels (130, 165 and 200 μg/ml).
Additional experiments validated these initial observations. […] Cohorts of genetically identical mice were injected with the same batch of human cells and were either untreated (Con) or treated with anakinra (Ana). Different dosing regimens of anakinra were used and different lengths of administration were tested. High dose anakinra (Hi) was 2 mg/mouse/day and low dose (lo) was 0.4 mg/mouse/day. The drug was injected daily for either 3 days (×3) or 7 days (×7). Blood levels of human albumin were measured by ELISA to ascertain the degree of human repopulation.

[3] = tested on: CYP3A4; test: Conversion of testosterone to 6-beta-hydroxyltestosterone in cultured hepatocytes from humanized mice; settings: cultured hepatocytes from repopulated FRG livers
Excerpt: (§1) The basal expression and induction of human liver specific genes in chimeric mice was examined. […] Primers, obtained from Applied Biosystems, were specific for human CYP1A1 (Hs00153120_m1), CYP1A2 (Hs00167927_m1), CYP3A4 (Hs00430021_m1), CYP3A7 (Hs00426361_a1), CYP2B6 (Hs00167937_g1), CYP2D6 (Hs00164385_a1), Multidrug resistance associated protein MRP2 (Hs00166123_m1), Bile Salt export Pump BSEP, (Hs00184829_m1), CAR (Hs00231959_m1) Albumin (Hs00609411_m1), HNF4α (Hs00230853_m1), Cyclophillin (Hs99999904_m1) and mouse actin (Ma00607939_s1).
Cultures of isolated hepatocytes were established and exposed to prototypical inducers of the cytochrome P450 genes. […] In addition to the mRNA expression levels of human drug metabolism genes, the enzymatic activity of the human CYP1A and 3A family members were measured. Ethoxyresorufin-O-deethylase activity (EROD) is known to be mediated by CYP1A1 and 1A2 in human liver.

[4] = tested on: CYP3A4; test: Induction of CYP3A4 mRNA in hepatocytes from humanized mice (real-time PCR); settings: relative to non-induced cultures; FIG. 7B
Excerpt: as §1

[5] = tested on: CYP1A1 and 1A2; test: Ethoxyresorufin-O-deethylase (EROD) activity in cultured hepatocytes from humanized mice; assay type: cell-based, human; settings: humanized mouse liver cells in culture
Procedure: (§2) Cultures of isolated hepatocytes were established and exposed to prototypical inducers of the cytochrome P450 genes. […]. In addition to the mRNA expression levels of human drug metabolism genes, the enzymatic activity of the human CYP1A and 3A family members were measured. Ethoxyresorufin-O-deethylase activity (EROD) is known to be mediated by CYP1A1 and 1A2 in human liver. […] Thus, hepatocytes from repopulated FRG livers were indistinguishable from normal human adult hepatocytes in these standard drug metabolism assays.

[6] = tested on: human drug metabolism genes; test: Induction of mRNAs of drug metabolism genes in cultured hepatocytes from humanized mice (real-time PCR); assay type: cell-based; settings: cultured hepatocytes from chimeric mice, mRNA
Procedure: as §2

Molecule: O=C1CCCC(=O)C1C(=O)c1ccc(C(F)(F)F)cc1[N+](=O)[O-] [NTBC, 2-(2-nitro-4-trifluoro-methyl-benzoyl)-1,3 cyclohexanedione]
- death after NTBC withdrawal ([1]; FRG mice, gradual hepatocellular injury after withdrawal): 4-8 weeks
- growth and fertility of FRG mice ([1]; NTBC continuously in drinking water, 1.6 mg/L): grew well and were fully fertile

Molecule: anakinra: recombinant, non-glycosylated version of human IL-1RA (IL-1 receptor antagonist), 153 amino acids, SEQ ID NO: 21
- blood level of human albumin, Elisa #2 ([2]; Experiment #1, primary transplantation, high dose (2 mg/mouse/day) x7): 5.6 mg and 4.8 mg
- blood level of human albumin, Elisa #1 ([2]; Hi (2 mg/mouse/day) x3): 52 μg-Hi x3 and 60 μg-Hi x3
- blood level of human albumin, Elisa #1 ([2]; Hi (2 mg/mouse/day) x7): 38 μg-Hi x7 and 56 μg-Hi x7
- blood human albumin ([2]; FRG mice, one million human hepatocytes intrasplenically, anakinra 2 mg i.p. during surgery then once daily for six doses (total 14 mg over 7 days), one month after transplantation): 130 µg/mL and 165 µg/mL and 200 µg/mL
- hepatocyte repopulation (in words) ([2]; anakinra-treated versus untreated FRG mice): remarkably enhanced; also recorded: consistently had much higher levels of repopulation
- enhanced repopulation versus untreated mice ([2]; on average, three independent tests of Table 6): approximately 100 fold
- percentage of highly humanized FRG mice after transplantation of human hepatocytes ([2]; with anakinra treatment versus without): significantly higher

Molecule: CCC1(c2ccccc2)C(=O)NC(=O)NC1=O [PB, phenobarbital]
- conversion of testosterone to 6-beta-hydroxyltestosterone after prior exposure to inducer [3]: specifically induced
- induction of CYP3A4 mRNA [4]: even more striking than at the enzyme level

Molecule: O=c1cc(-c2ccccc2)oc2ccc3ccccc3c12 [BNF, beta-naphthoflavone]
- EROD activity after prior exposure to inducer [5]: specifically and robustly induced
- pattern of genes induced [6]: as expected from normal human cells
